# Columns and labels:
# [1] = test system: Jurkat E6-1 human T-cell lymphoma; experiment: In vitro anti-proliferative effect, CCK-8 method, Jurkat E6-1; type: cell-based; details: Homo sapiens, Jurkat E6.1
# Method: (§1) The inhibitory activities of the compounds towards Hut78 T lymphocytic leukemia cells, Jurkat E6-1 human T-cell lymphoma, PANC-1 human pancreatic cancer cells, A549 human lung cancer cells, K562 human chronic myelogenous leukemia cells, Hep3B2.1-7 human liver cancer cells, MDA-MB-435s human breast cancer cells. Colo320 human colorectal cancer cell lines, and PC-3 human prostate cancer at two concentrations of 100 μM and 10 μM were determined. The inhibition percentages were obtained through CCK-8 method.
# [2] = test system: A549 human lung cancer cells; experiment: In vitro anti-proliferative effect, CCK-8 method, A549; type: cell-based; details: Homo sapiens, A549
# Method: as §1
# [3] = test system: Colo320 human colorectal cancer cell lines; experiment: In vitro anti-proliferative effect, CCK-8 method, Colo320; type: cell-based; details: Homo sapiens, COLO 320, Colo320 cell strain, CCK-8 method; for inhibition at 10 µM: compound at 10 μM; for inhibition at 100 µM: compound at 100 μM
# Method: as §1
# [4] = test system: PC-3 human prostate cancer; experiment: In vitro anti-proliferative effect, CCK-8 method, PC-3; type: cell-based; details: Homo sapiens, PC-3 cell strain, CCK-8 method; for inhibition at 10 µM: compound at 10 μM; for inhibition at 100 µM: compound at 100 μM
# Method: as §1
# [5] = test system: Hut78 T lymphocytic leukemia cells; experiment: In vitro anti-proliferative effect, CCK-8 method, Hut78; type: cell-based; details: Homo sapiens, HuT78, read-out: Hut-78 (inhibition %)
# Method: as §1
# HDACs = experiment: In vitro inhibition of HDACs (HDAC Inhibitor Drug Screening Kit, Biovision K340-100); type: biochemical
# Method: The in vitro inhibitory activities of the compounds towards HDACs were tested according to the instructions in the HDAC Inhibitor Drug Screening Kit (Biovision/Catalog #K340-100).
# (1) The compounds to be tested were each individually prepared as 2 mM, 200 μM and 40 μM solutions and their inhibitory activities at these concentrations were tested.
# [6] = test system: Hep3B2.1-7 human liver cancer cells; experiment: In vitro anti-proliferative effect, CCK-8 method, Hep3B; type: cell-based; details: Homo sapiens, Hep3B cell strain, CCK-8 method; for inhibition at 10 µM: compound at 10 μM; for inhibition at 100 µM: compound at 100 μM
# Method: as §1
# [7] = test system: PANC-1 human pancreatic cancer cells; experiment: In vitro anti-proliferative effect, CCK-8 method, PANC-1; type: cell-based; details: Homo sapiens, PANC-1
# Method: as §1
# [8] = test system: MDA-MB-435s human breast cancer cells; experiment: In vitro anti-proliferative effect, CCK-8 method, MDA-MB-435s; type: cell-based; details: Homo sapiens, MDA-MB-435S
# Method: as §1
# [9] = test system: K562 human chronic myelogenous leukemia cells; experiment: In vitro anti-proliferative effect, CCK-8 method, K562; type: cell-based; details: Homo sapiens, K562
# Method: as §1
# HDAC1 = HDAC1 (Homo sapiens (Human), UniProt Q13547); experiment: In vitro inhibition of subtype HDAC1 (HDAC1 Inhibitor Drug Screening Kit, Biovision); type: biochemical; details: for inhibition at 1 µM / inhibition at 10 µM: read-out: % Inhibition towards HDAC1; for inhibitory activity against HDAC1 compared with MS-275: both concentrations 10 μM and 1 μM
# Method: The in vitro inhibitory activities of the compounds towards the subtype HDAC1 were tested according to the instructions in the HDAC1 Inhibitor Drug Screening Kit (Biovision).
# (1) The compounds to be tested were each individually prepared as 10 μM and 1 μM solutions and their inhibitory activities at these concentrations were tested.
# Each dilution sample was placed in two wells and the enzyme inhibition IC50 of the compound was tested.
# Sequence of HDAC1 (Q13547 whole entry): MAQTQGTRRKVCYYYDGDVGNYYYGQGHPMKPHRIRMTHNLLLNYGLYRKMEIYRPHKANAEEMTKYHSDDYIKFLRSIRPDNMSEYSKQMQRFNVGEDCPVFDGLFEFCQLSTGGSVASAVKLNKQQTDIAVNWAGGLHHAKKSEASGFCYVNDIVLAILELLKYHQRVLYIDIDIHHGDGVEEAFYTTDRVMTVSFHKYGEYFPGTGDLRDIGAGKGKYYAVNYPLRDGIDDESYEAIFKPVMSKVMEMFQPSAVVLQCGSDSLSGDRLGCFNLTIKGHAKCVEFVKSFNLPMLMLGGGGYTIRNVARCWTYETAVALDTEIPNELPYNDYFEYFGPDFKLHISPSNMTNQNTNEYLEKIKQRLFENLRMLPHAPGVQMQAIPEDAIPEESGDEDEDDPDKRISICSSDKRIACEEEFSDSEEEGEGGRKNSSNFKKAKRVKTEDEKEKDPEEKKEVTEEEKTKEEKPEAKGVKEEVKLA
SMILES,inhibition at 10 µM [1] [%],inhibition at 100 µM [1] [%],inhibition at 10 µM [2] [%],inhibition at 100 µM [2] [%],inhibition at 10 µM [3] [%],inhibition at 100 µM [3] [%],inhibition at 10 µM [4] [%],inhibition at 100 µM [4] [%],inhibition at 10 µM [5] [%],inhibition at 100 µM [5] [%],Inhibition percentage (%) towards HDACs (HDACs; 40 μM) [%],Inhibition percentage (%) towards HDACs (HDACs; 200 μM) [%],Inhibition percentage (%) towards HDACs (HDACs; 2 mM) [%],inhibition at 10 µM [6] [%],inhibition at 100 µM [6] [%],inhibition at 10 µM [7] [%],inhibition at 100 µM [7] [%],inhibition at 10 µM [8] [%],inhibition at 100 µM [8] [%],inhibition at 10 µM [9] [%],other results
"COc1cccc2c(Nc3ccc(C(=O)Nc4cc(F)ccc4N)cc3)ncnc12 [Compound V-10, N-(2-amino-5-fluorophenyl)-4-(8-methoxy-quinazoline-4-amino)benzamide]",25.3,72.8,-4.4,40.1,6.4,23.3,13.7,57.4,8.1,47.5,12.0,32.9,77.2,3.7,31.3,13,19,9.4,82.9,45,IC50 (HDACs): 1.04 µM; inhibitory activity according to in vitro IC50 value against HDACs compared with MS-275 (HDACs): better inhibitory activities than MS-275; inhibition at 100 µM [9]: 62.1%; inhibition at 1 µM (HDAC1): 45.2%; inhibition at 10 µM (HDAC1): 62.6%
COCCOc1cc2ncnc(Nc3ccc(C(=O)Nc4ccncc4N)cc3)c2cc1OCCOC [Compound V-16],37.2,22.1,48.7,65.7,-2.3,-17.1,5.1,3.4,26.2,20.7,24.8,56.8,58.6,24.8,13.5,8,7.8,49.8,50.4,42.8,IC50 (HDACs): 6.89 µM; inhibition at 100 µM [9]: 29.7%; inhibition at 1 µM (HDAC1): 59.1%; inhibition at 10 µM (HDAC1): 87.4%; inhibitory activity against HDAC1 compared with MS-275 (HDAC1): superior to that of MS-275
"COc1cccc2ncnc(Nc3ccc(C(=O)Nc4ccccc4N)cc3)c12 [Compound V-7, N-(2-aminophenyl)-4-(5-methoxy-quinazoline-4-amino)benzamide]",26.4,91,-7.4,24.9,8.9,48.5,8.1,49.8,10.7,60.3,6.5,22.1,39.2,8.1,53.2,1.1,35.2,-16.5,85.4,29.7,IC50 (HDACs): 3.99 µM; inhibition at 100 µM [9]: 82.6%; inhibition at 1 µM (HDAC1): 50.1%; inhibition at 10 µM (HDAC1): 78.4%; inhibitory activity against HDAC1 compared with MS-275 (HDAC1): superior to that of MS-275
"COCCOc1cc2ncnc(Nc3ccc(C(=O)Nc4ccccc4N)cc3)c2cc1OCCOC [Compound V-15, N-(2-aminophenyl)-4-(6,7-dimethoxyethoxyquinazoline-4-amino)benzamide]",33.7,13.9,4.7,3.5,15.3,3.9,10.9,8.6,70.7,80.4,13.7,51.5,61.4,16.3,11.2,7.2,0.5,21.6,21,27.2,IC50 (HDACs): 9.4 µM; inhibition at 100 µM [9]: 11.9%; inhibition at 1 µM (HDAC1): 67.1%; inhibition at 10 µM (HDAC1): 78.8%; inhibitory activity against HDAC1 compared with MS-275 (HDAC1): superior to that of MS-275
"COc1cc2ncnc(Nc3ccc(C(=O)Nc4cc(-c5cccs5)ccc4N)cc3)c2cc1OC [Compound V-23, N-[2-amino-5-(2-thienyl)phenyl]-4-(6,7-dimethoxyquinazoline-4-amino)benzamide]",4.7,52.7,-7.4,6.2,7.3,5.9,7,40.2,59.9,93.1,17.5,37.3,40.7,1,28.1,9.2,4,21.5,42.9,12.8,inhibition at 100 µM [9]: 61.2%; IC50 (HDAC1): 0.178 µM; inhibition at 1 µM (HDAC1): 19.2%; inhibition at 10 µM (HDAC1): 55.8%

# Reference: patent US9034886B2, “4-aminoquinazoline derivatives and uses thereof” (Shanghai Institute of Pharmaceutical Industry, priority 2011, dated 2015)
